# Assays:
# [1] = system: Human Foreskin Fibroblasts (HFFs); type: cell-based; conditions: for cell cycle progression after mimosine arrest: HFFs treated with mimosine 48 hours, washed, treated one day
# Procedure: Flow Cytometry: 1×10^5 HFFs from infected-treated or untreated conditions were washed with cold PBS. Cells were suspended in 70% pre-cooled alcohol. Cells were permeabilized in −20° C. for at least 2 hours followed by centrifugation at 5000 rpm for 5 minutes. The supernatants were discarded and cells were washed with cold PBS three times. Cells were re-suspended in 500 ul PBS, propidium iodide was added to a final concentration of 20-50 μg/ml and cells were incubated at room temperature for at least 10 minutes before applying them on flow machine.
# The differences between the MTT and trypan blue assay complicated the calculation of antiviral selectivity. […] After 3 day serum starvation cells were released from serum starvation, infected with Towne HCMV and treated with digitoxin or the cardiac glycoside ouabain for 24 hours. HFFs were stained with propidium iodide and subjected to cell cycle analysis by flow cytometry.
# breast cancer patients = conditions: women with breast cancer taking digoxin vs. 34% not taking digitalis; cited from earlier work
# [2] = system: Herpes Simplex Virus 1 (HSV1); conditions: reported; cited from earlier work
# Towne HCMV = conditions: previously reported by the inventors; cited from earlier work
Structure (SMILES),cell cycle progression after mimosine arrest [1],death rate (breast cancer patients) [%],inhibition of Herpes Simplex Virus 1 (HSV1) [2],inhibition of Towne HCMV replication (Towne HCMV),"cell cycle progression ([1]; HFFs released from 3 day serum starvation, infected with Towne HCMV, treated 24 hours)"
"Nc1nc(O)c2ncn(COC(CO)CO)c2n1 [GCV, ganciclovir]",allowed the cells to normally progress in the cell cycle,–,–,–,–
C[C@H]1O[C@@H](O[C@H]2[C@@H](O)C[C@H](O[C@H]3[C@@H](O)C[C@H](O[C@H]4CC[C@@]5(C)[C@H](CC[C@@H]6[C@@H]5C[C@@H](O)[C@]5(C)[C@@H](C7=CC(=O)OC7)CC[C@]65O)C4)O[C@@H]3C)O[C@@H]2C)C[C@H](O)[C@@H]1O [digoxin],–,6,inhibit Herpes Simplex Virus 1 (HSV1) in nanomolar concentrations,potent inhibitors of Towne HCMV replication,–
C[C@@H]1O[C@@H](O[C@H]2C[C@@H](O)[C@]3(CO)[C@H]4[C@H](O)C[C@]5(C)[C@@H](C6=CC(=O)OC6)CC[C@]5(O)[C@@H]4CC[C@]3(O)C2)[C@H](O)[C@H](O)[C@H]1O [ouabain],could not relieve HFFs from cell cycle arrest induced by mimosine,–,inhibit Herpes Simplex Virus 1 (HSV1) in nanomolar concentrations,potent inhibitors of Towne HCMV replication,arrested HFFs in G1

# Source: patent publication US10610539B2, “Cardiac glycoside analogs and their use in methods for inhibition of viral infection” (priority 2013, dated 2020)
